Experimental data: BindingDB's records for doi:10.1021/jm00153a007 (1986)

Target: Prostacyclin synthase (Sus scrofa)
Assay: Inhibition of PGI-2 synthetase from porcine aorta

| Compound | IC50 |
| --- | --- |
| CC(C)c1c(Cn2ccnc2)c2ccccc2n1CCC(=O)O [3-(3-Imidazol-1-ylmethyl-2-isopropyl-indol-1-yl)-propionic acid] | > 100 µM |
| Cc1c(Cn2ccnc2)c2ccccc2n1/C=C/C(=O)O [3-(3-Imidazol-1-ylmethyl-2-methyl-indol-1-yl)-acrylic acid] | > 100 µM |
| O=C(O)CCn1cc(Cn2ccnc2)c2ccc(C(F)(F)F)cc21 [3-(3-Imidazol-1-ylmethyl-6-trifluoromethyl-indol-1-yl)-propionic acid] | > 100 µM |
| O=C(O)CCn1cc(Cn2ccnc2)c2cc(Br)ccc21 [3-(5-Bromo-3-imidazol-1-ylmethyl-indol-1-yl)-propionic acid] | > 100 µM |
| O=C(O)CCn1cc(Cn2ccnc2)c2cc(Cl)ccc21 [3-(5-Chloro-3-imidazol-1-ylmethyl-indol-1-yl)-propionic acid] | > 100 µM |
| CN(C)c1ccc2c(c1)c(Cn1ccnc1)cn2CCC(=O)O [3-(5-Dimethylamino-3-imidazol-1-ylmethyl-indol-1-yl)-propionic acid] | > 100 µM |
